Measured values from patent USRE40155E1, “Methods for treatment of benign and malignant tumors, including lymphomas, leukemias, and leiomyomas” (priority 1995, dated 2008).

What was measured:
[1] = tested on: fresh human promyelocytic leukemia cells (AML3); settings: cited from earlier work
AML-3 patients = settings: oral, alone; cited from earlier work
[2] = tested on: human promyelocytic leukemia (HL-60) cells; experiment: Inhibition of proliferation of HL-60 cells, Trypan Blue cell counts; type: cell-based
Excerpt: Inhibition of proliferation by pirfenidone of human promyelocytic leukemia (HL-60) cells in vitro.
[…] Five ml of each pirfenidone concentration, and of the control were placed into a T25 tissue culture flask along with 1×10^5 cells. Every day for 4 days an aliquote from each flask was taken out, then stained with Trypan Blue, and counts were repeated three times on each aliquote.

[3] = tested on: human T-cell leukemia (JURKAT) cells; experiment: MTS assay of JURKAT cell proliferation; type: cell-based; settings: 900 mcg/ml, 72 hours
Description: Inhibition of proliferation by pirfenidone of human T-cell leukemia (JURKAT) cells in vitro.
(§1) To determine the inhibitory effect of pirfenidone concentrations on human T-cell leukemia (JURKAT), a MTS assay was used which incorporates a tetrazolium dye that measures the cellular conversion of the dye into a formazan product by the activation of NADH-generating dehydrogenases found in metabolically active cells.
(§2) 1. 100 microl. of cells was seeded into 96 well plates at 1×10^5 cells/ml in media containing 100 mcg/ml, 300 mcg/ml and 900 mcg/ml of pirfenidone, as well as a pirfenidone-free media control.
(§3) 2. Cells were incubated at 37 degrees C., at 5.0% CO2 for 72 hours.
(§4) 3. After incubation a standard curve was made of 100 microliters of cells added to the plate at 5×10^5 cells/ml making 1:2 dilutions all the way down to a pre-set degree of dilution.
(§5) 4. 2.0 mls of the MTS solution was mixed with a 100 microliter of the PMS solution, and 20 microliters of this combined dye solution was added to each well and incubated at 37 degrees C., 5.0% CO2 for 3 hours.
(§6) 5. Subsequently the absorbance was read at 490 nm.

[4] = tested on: human Burkitt's lymphoma (RAJI) cells; experiment: MTS assay of RAJI cell proliferation; type: cell-based; settings: 900 mcg/ml, 72 hours
Description: Inhibition of proliferation by pirfenidone of human Burkitt's lymphoma (RAJI) cells in vitro.
as §1, with “Burkitt's lymphoma (RAJI) cells,” for “human T-cell leukemia (JURKAT),”
as §2, §3, §4, §5, §6

human leiomyoma cells = experiment: Leiomyoma cell proliferation, cell counts and Trypan Blue viability on day 7; type: cell-based
Description: Leiomyoma tissues were obtained from several premenopausal women with symptomatic uterine fibroids at elective hysterectomy, and who were not receiving any hormonal or other drug therapy. The fibroid tissues were minced into 1-2 mm# explants and placed in suitable DMEM supplemented with 10% bovine serum. The fibroid tissue was digested for 14-18 hours at 37 degrees C. in an incubator. After centrifugation, a resulting cell pellet was resuspended in DMEM and then placed in culture flasks. The cultures were maintained at 37 degrees centigrade in a humidified atmosphere of 5% CO2 and 95% air.
Leiomyoma cells were plated in 100 mm dishes (100,000 each dish) and allowed to attach overnight in DMEM plus 10% fetal bovine serum until they reached 80-90% confluence.

Compound	induction of differentiation in vitro [1]	clinical response (AML-3 patients)	toxic death of HL-60 cells ([2]; 900 micrograms/ml, after 3 and 4 days)	inhibition of proliferation and cell death of HL-60 cells ([2]; 1400 micrograms/ml)	inhibition at 900 µg/mL ([2]; Homo sapiens, HL-60, 900 micrograms/ml, after 3 and 4 days) [%]	reduction in number of active JURKAT cells [3] [%]	reduction in number of active RAJI cells [4] [%]	CELL COUNTS (DAY 7) LEIOMYOMA (human leiomyoma cells; 0.01 MG/ML)	RECENT DEAD CELLS (DAY 7) LEIOMYOMA (human leiomyoma cells; 0.01 MG/ML)	CELL COUNTS (DAY 7) LEIOMYOMA (human leiomyoma cells; 0.1 MG/ML)	RECENT DEAD CELLS (DAY 7) LEIOMYOMA (human leiomyoma cells; 0.1 MG/ML)	CELL COUNTS (DAY 7) LEIOMYOMA (human leiomyoma cells; 0.3 MG/ML)	RECENT DEAD CELLS (DAY 7) LEIOMYOMA (human leiomyoma cells; 0.3 MG/ML)	CELL COUNTS (DAY 7) LEIOMYOMA (human leiomyoma cells; 1.0 MG/ML)	RECENT DEAD CELLS (DAY 7) LEIOMYOMA (human leiomyoma cells; 1.0 MG/ML)	percentage of dead leiomyoma cells (human leiomyoma cells; 1000 micrograms/ml) [%]	effect on proliferation of leiomyoma cells (human leiomyoma cells; graded concentrations in the culture media, 7 days (FIG. 4))
CC1=C(/C=C/C(C)=C/C=C/C(C)=C/C(=O)O)C(C)(C)CCC1 [All-trans-retinoic acid]	differentiate in vitro to mature functional gramulocytes	complete remission															
Cc1ccc(=O)n(-c2ccccc2)c1 [pirfenidone]			without causing a toxic death of the cells	deaths of almost all cells	63	75	45	315,000	8.0	205,000	10.0	170,000	6.0	69,000	16.0	16	significant inhibitory effect
